Measured values taken from ChEMBL document CHEMBL5365435, “Design, Synthesis, and Biological Evaluation of Thioglucoside Analogues of Gliflozin as Potent New Gliflozin Drugs” (J Med Chem, 2023).
Calls of active or inactive are those of the source. The calls are words filed in the database; no cut-off is given here.

Experiments:
[1] = molecular target: T1, Sodium/glucose cotransporter 2 (Homo sapiens) (UniProt P31639); test: Inhibition of SGLT2 (unknown origin) at 100 uM relative to control
T1 sequence (whole entry): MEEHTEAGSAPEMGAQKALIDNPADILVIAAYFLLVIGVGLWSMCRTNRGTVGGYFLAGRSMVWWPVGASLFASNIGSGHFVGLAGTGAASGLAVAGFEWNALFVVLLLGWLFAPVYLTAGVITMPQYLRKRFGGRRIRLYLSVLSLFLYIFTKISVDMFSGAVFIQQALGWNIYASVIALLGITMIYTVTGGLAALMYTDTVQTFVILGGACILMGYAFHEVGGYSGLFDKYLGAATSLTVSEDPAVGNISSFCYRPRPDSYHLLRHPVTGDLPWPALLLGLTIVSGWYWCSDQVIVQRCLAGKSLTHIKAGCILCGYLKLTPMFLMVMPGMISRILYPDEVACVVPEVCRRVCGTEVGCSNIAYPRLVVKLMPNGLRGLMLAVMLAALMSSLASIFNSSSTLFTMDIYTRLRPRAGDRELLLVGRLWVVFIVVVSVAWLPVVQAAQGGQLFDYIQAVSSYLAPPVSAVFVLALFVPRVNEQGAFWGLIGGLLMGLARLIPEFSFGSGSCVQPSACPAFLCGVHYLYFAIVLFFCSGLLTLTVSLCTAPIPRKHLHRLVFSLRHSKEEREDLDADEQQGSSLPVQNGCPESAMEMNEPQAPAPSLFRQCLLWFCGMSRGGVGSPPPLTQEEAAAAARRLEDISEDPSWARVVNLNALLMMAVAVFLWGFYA

HEK293 = test: Cytotoxicity against HEK293 cells at 100 uM incubated for 24 hrs by MTT assay; assay type: toxicity, cell-based; conditions: human, hek293, 24 h
[2] = molecular target: T1, Sodium/glucose cotransporter 2 (Homo sapiens); test: Inhibition of SGLT2 in HEK293 cells assessed as 2-NBDG uptake at 100 uM preincubated for 1 hr followed by 2-NBDG addition and measured after 1 hr relative to control; assay type: cell-based; conditions: time 2.0 hrs
[3] = molecular target: T2, Sodium/glucose cotransporter 2 (Homo sapiens, UniProt P31639); test: Inhibition of SGLT2 (unknown origin)
T2 sequence (P31639 whole entry): T1 sequence (whole entry)

Mus musculus [4] = test: Antidiabetic activity against C57BL/6J mouse assessed as decrease in renal glucose level at 3 mg/kg, po measured upto 8 hrs by glucometer analysis; assay type: functional, organism-based
Mus musculus [5] = test: Antidiabetic activity against C57BL/6J mouse assessed as decrease in blood glucose level at 3 mg/kg, po measured upto 8 hrs by glucometer analysis; assay type: functional, organism-based
[6] = Cmax in mouse at 3 mg/kg, po by LC analysis; assay type: ADME, organism-based; design: dose 3 mg/kg, route po; conditions: in vivo
[7] = Tmax in mouse at 3 mg/kg, po by LC analysis; assay type: ADME, organism-based; conditions: in vivo
[8] = Half life in mouse at 3 mg/kg, po by LC analysis; assay type: ADME, organism-based; conditions: in vivo
[9] = AUCinfinity in mouse at 3 mg/kg, po by LC analysis; assay type: ADME, organism-based; design: dose 3 mg/kg, route po; conditions: in vivo

SMILES | inhibition [2] [%] | IC50 [3] [nM] | Activity (HEK293) | further results
Cc1ccc(S[C@@H]2O[C@H](CO)[C@@H](O)[C@H](O)[C@H]2O)cc1Cc1ccc(-c2ccc(F)cc2)s1 | 54 |  | Non-Toxic | 
Cc1ccc([C@@H]2O[C@H](CO)[C@@H](O)[C@H](O)[C@H]2O)cc1Cc1ccc(-c2ccc(F)cc2)s1 [CANAGLIFLOZIN ANHYDROUS] | > 90 | 2.4 |  | 
OC[C@H]1O[C@@H](c2ccc(Cl)c(Cc3ccc(O[C@H]4CCOC4)cc3)c2)[C@H](O)[C@@H](O)[C@@H]1O |  |  |  | Activity (Mus musculus [4]): Active; Activity (Mus musculus [5]): Active
COc1ccc(Cc2ccccc2O[C@@H]2O[C@H](CO)[C@@H](O)[C@H](O)[C@H]2O)cc1 [SERGLIFLOZIN A] |  | 7.5 |  | 
CCOC(=O)OC[C@H]1O[C@@H](Oc2ccccc2Cc2ccc(OC)cc2)[C@H](O)[C@@H](O)[C@@H]1O [SERGLIFLOZIN ETABONATE] |  | 7.5 |  | 
Cc1cc(O)c(C(=O)CCc2ccc3occc3c2)c(O[C@@H]2O[C@H](CO)[C@@H](O)[C@H](O)[C@H]2O)c1 |  | 4.4 |  | 

More lines, main results first:

inhibition [2] [%] | IC50 [3] [nM] | SMILES | Activity (HEK293) | further results
62 |  | OC[C@H]1O[C@@H](Sc2ccc(Cl)c(Cc3ccc(O[C@H]4CCOC4)cc3)c2)[C@H](O)[C@@H](O)[C@@H]1O | Non-Toxic | inhibition [1]: 62%
57 |  | CCOc1ccc(Cc2cc(S[C@@H]3O[C@H](CO)[C@@H](O)[C@H](O)[C@H]3O)ccc2Cl)cc1 | Non-Toxic | 
> 90 | 5.9 | COc1ccc(Cc2ccccc2S[C@@H]2O[C@H](CO)[C@@H](O)[C@H](O)[C@H]2O)cc1 | Non-Toxic | 
> 90 | 2.6 | CCOc1ccc(Cc2c(Cl)cccc2S[C@@H]2O[C@H](CO)[C@@H](O)[C@H](O)[C@H]2O)cc1 | Non-Toxic | 
> 90 | 2 | OC[C@H]1O[C@@H](Sc2cccc(Cl)c2Cc2ccc(O[C@H]3CCOC3)cc2)[C@H](O)[C@@H](O)[C@@H]1O | Non-Toxic | Activity (Mus musculus [4]): Active; Activity (Mus musculus [5]): Active; Cmax [6]: 4200 ng/mL; Tmax [7]: 1 h; half-life [8]: 3.67 h; AUC(0-inf) [9]: 12800 ng·h/mL
> 90 | 2.5 | Cc1cccc(S[C@@H]2O[C@H](CO)[C@@H](O)[C@H](O)[C@H]2O)c1Cc1ccc(-c2ccc(F)cc2)s1 | Non-Toxic | 
